Test results from patent publication US20250186437A1, “CARBOLINE COMPOUNDS AND USE THEREOF” (PTC Therapeutics, Inc., priority 2021, published 2025).

System: MOLM-13 cells
Test: MOLM-13 Cell Proliferation Assay (indicator of DHODH inhibition)
Format: cell-based
Details: Homo sapiens, 72 Hours of culture, CellTiter-Glo, no uridine
Description: The following assay was conducted to measure proliferation of MOLM-13 cells in the presence of each compound studied. This assay was included as an indicator of DHODH inhibition, as growth of MOLM-13 cells is known to depend on synthesis of pyrimidines using the de novo pathway, which can be blocked by inhibition of DHODH. • 1. MOLM-13 cells were cultured in RPMI 1640 medium+10% Fetal Bovine Serum (FBS). Only low passage cells (<20) were used for the compound tests • 2. On day 1, Log-phase growing Molm-13 Cells were counted and diluted to 10^5 cells/mL in RPMI 1640 medium+10% FBS • 3. 100 μL of diluted MOLM-13 cells in 96 well white plates were seeded, for a final density of 10^4 cells/well. • 4. 0.5 μL of pre-diluted 200× compounds or DMSO control was added to each well. The final DMSO concentration was 0.5%. • 5. After 72 Hours of culture at 37° C., 5% CO2, the plates were taken out and cooled to RT, then 50 μL CellTiter-Glo® (Promega) was added, and the composition was mixed at RT for 10 minutes. • 6. The plates were then read by ViewLux (Speed-fast, Gain-High, Bining-1X, 5 seconds).

Compound	IC50 [nM]
Fc1cnc(N2CCc3c([nH]c4cc(F)c(Cl)cc34)C2c2ccc(C(F)(F)F)cc2)nc1 (centres unmarked) [Compound 35, 6-chloro-7-fluoro-2-(5-fluoropyrimidin-2-yl)-1-[4-(trifluoromethyl)phenyl]-2,3,4,9-tetrahydro-1H-pyrido[3,4-b]indole]	43.2
Fc1cnc(N2CCc3c([nH]c4cc(F)c(Cl)cc34)C2c2cccc(F)c2F)nc1 (centres unmarked) [Compound 36, 6-chloro-1-(2,3-difluorophenyl)-7-fluoro-2-(5-fluoropyrimidin-2-yl)-2,3,4,9-tetrahydro-1H-pyrido[3,4-b]indole]	23.4
Fc1cnc(N2CCc3c([nH]c4cc(F)c(Cl)cc34)C2c2ccc(F)c(F)c2)nc1 (centres unmarked) [Compound 37, 6-chloro-1-(3,4-difluorophenyl)-7-fluoro-2-(5-fluoropyrimidin-2-yl)-2,3,4,9-tetrahydro-1H-pyrido[3,4-b]indole]	89.6
Cc1ccnc(N2CCc3c([nH]c4cc(F)c(Cl)cc34)C2c2ccc(Cl)cc2)n1 (centres unmarked) [Compound 38, 6-chloro-1-(4-chlorophenyl)-7-fluoro-2-(4-methylpyrimidin-2-yl)-2,3,4,9-tetrahydro-1H-pyrido[3,4-b]indole]	24.3
Fc1cc2[nH]c3c(c2cc1Cl)CCN(c1nccc(Cl)n1)C3c1ccc(Cl)cc1 (centres unmarked) [Compound 39, 6-chloro-1-(4-chlorophenyl)-2-(4-chloropyrimidin-2-yl)-7-fluoro-2,3,4,9-tetrahydro-1H-pyrido[3,4-b]indole]	10.3
N#Cc1ccnc(N2CCc3c([nH]c4cc(F)c(Cl)cc34)C2c2ccc(Cl)cc2)n1 (centres unmarked) [Compound 40, 2-[6-chloro-1-(4-chlorophenyl)-7-fluoro-1,3,4,9-tetrahydro-2H-pyrido[3,4-b]indol-2-yl]pyrimidine-4-carbonitrile]	22.4
Cc1ccc(C2c3[nH]c4cc(F)c(Cl)cc4c3CCN2c2ncc(Cl)cn2)cc1 (centres unmarked) [Compound 41, 6-chloro-2-(5-chloropyrimidin-2-yl)-7-fluoro-1-(4-methylphenyl)-2,3,4,9-tetrahydro-1H-pyrido[3,4-b]indole]	19.6
Cc1ccc(C2c3[nH]c4cc(F)c(Cl)cc4c3CCN2c2nccc(C)n2)cc1 (centres unmarked) [Compound 42, 6-chloro-7-fluoro-1-(4-methylphenyl)-2-(4-methylpyrimidin-2-yl)-2,3,4,9-tetrahydro-1H-pyrido[3,4-b]indole]	20.3
Cc1ccc(C2c3[nH]c4cc(F)c(Cl)cc4c3CCN2c2nccc(Cl)n2)cc1 (centres unmarked) [Compound 43, 6-chloro-2-(4-chloropyrimidin-2-yl)-7-fluoro-1-(4-methylphenyl)-2,3,4,9-tetrahydro-1H-pyrido[3,4-b]indole]	6
Cc1ccc(C2c3[nH]c4cc(F)c(Cl)cc4c3CCN2c2nccc(C#N)n2)cc1 (centres unmarked) [Compound 44, 2-[6-chloro-7-fluoro-1-(4-methylphenyl)-1,3,4,9-tetrahydro-2H-pyrido[3,4-b]indol-2-yl]pyrimidine-4-carbonitrile]	14.7
Fc1cc2[nH]c3c(c2cc1Cl)CCN(c1ncccn1)C3c1ccc(C2CC2)cc1 (centres unmarked) [Compound 45, 6-chloro-1-(4-cyclopropylphenyl)-7-fluoro-2-(pyrimidin-2-yl)-2,3,4,9-tetrahydro-1H-pyrido[3,4-b]indole]	32.2
Cc1cc(Cl)nc(N2CCc3c([nH]c4cc(F)c(Cl)cc34)C2c2ccc(F)cc2)n1 (centres unmarked) [Compound 46, 6-chloro-2-(4-chloro-6-methylpyrimidin-2-yl)-7-fluoro-1-(4-fluorophenyl)-2,3,4,9-tetrahydro-1H-pyrido[3,4-b]indole]	6.5
Fc1cnc(N2CCc3c([nH]c4cc(F)c(Cl)cc34)C2c2ccc(F)nc2)nc1 (centres unmarked) [Compound 47, 6-chloro-7-fluoro-1-(6-fluoropyridin-3-yl)-2-(5-fluoropyrimidin-2-yl)-2,3,4,9-tetrahydro-1H-pyrido[3,4-b]indole]	140
Oc1ccc(C2c3[nH]c4cc(F)c(Cl)cc4c3CCN2c2ncc(F)cn2)cn1 (centres unmarked) [Compound 48, 5-[6-chloro-7-fluoro-2-(5-fluoropyrimidin-2-yl)-2,3,4,9-tetrahydro-1H-pyrido[3,4-b]indol-1-yl]pyridin-2-ol]	222
Fc1ccc(C2c3[nH]c4ccc(Cl)c(F)c4c3CCN2c2ncc(Cl)cn2)cc1 (centres unmarked) [Compound 49, 6-chloro-2-(5-chloropyrimidin-2-yl)-5-fluoro-1-(4-fluorophenyl)-2,3,4,9-tetrahydro-1H-pyrido[3,4-b]indole]	21.2
CC(C)c1ccc(C2c3[nH]c4cc(F)c(Cl)cc4c3CCN2c2ncc(F)cn2)cc1 (centres unmarked) [Compound 50, 6-chloro-7-fluoro-2-(5-fluoropyrimidin-2-yl)-1-[4-(propan-2-yl)phenyl]-2,3,4,9-tetrahydro-1H-pyrido[3,4-b]indole]	24.7

Compound	IC50 [nM]
Fc1ccc(C2c3[nH]c4ccc(Cl)c(F)c4c3CCN2c2ncc(F)cn2)cc1 (centres unmarked) [Compound 51, 6-chloro-5-fluoro-1-(4-fluorophenyl)-2-(5-fluoropyrimidin-2-yl)-2,3,4,9-tetrahydro-1H-pyrido[3,4-b]indole]	21.6
N#Cc1ccc(C2c3[nH]c4ccc(Cl)c(F)c4c3CCN2c2ncc(Cl)cn2)cc1 (centres unmarked) [Compound 52, 4-[6-chloro-2-(5-chloropyrimidin-2-yl)-5-fluoro-2,3,4,9-tetrahydro-1H-pyrido[3,4-b]indol-1-yl]benzonitrile]	25.7
CC(C)c1ccc(C2c3[nH]c4cc(F)c(Cl)cc4c3CCN2c2nccc(Cl)n2)cc1 (centres unmarked) [Compound 53, 6-chloro-2-(4-chloropyrimidin-2-yl)-7-fluoro-1-[4-(propan-2-yl)phenyl]-2,3,4,9-tetrahydro-1H-pyrido[3,4-b]indole]	7.7
CC(C)c1ccc(C2c3[nH]c4cc(F)c(Cl)cc4c3CCN2c2nccc(C#N)n2)cc1 (centres unmarked) [Compound 55, 2-{6-chloro-7-fluoro-1-[4-(propan-2-yl)phenyl]-1,3,4,9-tetrahydro-2H-pyrido[3,4-b]indol-2-yl}pyrimidine-4-carbonitrile]	13.1
N#Cc1ccc(C2c3[nH]c4ccc(Cl)c(F)c4c3CCN2c2ncc(F)cn2)cc1 (centres unmarked) [Compound 56, 4-[6-chloro-5-fluoro-2-(5-fluoropyrimidin-2-yl)-2,3,4,9-tetrahydro-1H-pyrido[3,4-b]indol-1-yl]benzonitrile]	25.7
CC(C)c1ccc(C2c3[nH]c4cc(F)c(Cl)cc4c3CCN2c2ncc(Cl)cn2)cc1 (centres unmarked) [Compound 57, 6-chloro-2-(5-chloropyrimidin-2-yl)-7-fluoro-1-[4-(propan-2-yl)phenyl]-2,3,4,9-tetrahydro-1H-pyrido[3,4-b]indole]	19.9
Fc1cnc(N2CCc3c([nH]c4cc(F)c(Cl)cc34)C2c2cccc(F)c2)nc1 (centres unmarked) [Compound 58, 6-chloro-7-fluoro-1-(3-fluorophenyl)-2-(5-fluoropyrimidin-2-yl)-2,3,4,9-tetrahydro-1H-pyrido[3,4-b]indole]	89.8
N#Cc1ccc(C2c3[nH]c4cc(F)c(Cl)cc4c3CCN2c2ncc(Cl)cn2)cc1 (centres unmarked) [Compound 59, 4-[6-chloro-2-(5-chloropyrimidin-2-yl)-7-fluoro-2,3,4,9-tetrahydro-1H-pyrido[3,4-b]indol-1-yl]benzonitrile]	38.7
Fc1ccc(C2c3[nH]c4ccc(Cl)c(F)c4c3CCN2c2nccc(C(F)(F)F)n2)cc1 (centres unmarked) [Compound 60, 6-chloro-5-fluoro-1-(4-fluorophenyl)-2-[4-(trifluoromethyl)pyrimidin-2-yl]-2,3,4,9-tetrahydro-1H-pyrido[3,4-b]indole]	9.3
Cc1ccnc(N2CCc3c([nH]c4cc(F)c(Cl)cc34)C2c2ccc(C#N)cc2)n1 (centres unmarked) [Compound 61, 4-[6-chloro-7-fluoro-2-(4-methylpyrimidin-2-yl)-2,3,4,9-tetrahydro-1H-pyrido[3,4-b]indol-1-yl]benzonitrile]	35.2
Fc1c(Cl)ccc2[nH]c3c(c12)CCN(c1ncc(Cl)cn1)C3c1ccc(C(F)(F)F)cc1 (centres unmarked) [Compound 62, 6-chloro-2-(5-chloropyrimidin-2-yl)-5-fluoro-1-[4-(trifluoromethyl)phenyl]-2,3,4,9-tetrahydro-1H-pyrido[3,4-b]indole]	24.7
Cc1ccnc(N2CCc3c([nH]c4cc(F)c(Cl)cc34)C2c2cccc(F)c2F)n1 (centres unmarked) [Compound 63, 6-chloro-1-(2,3-difluorophenyl)-7-fluoro-2-(4-methylpyrimidin-2-yl)-2,3,4,9-tetrahydro-1H-pyrido[3,4-b]indole]	13.2
N#Cc1ccc(C2c3[nH]c4cc(F)c(Cl)cc4c3CCN2c2nccc(C#N)n2)cc1 (centres unmarked) [Compound 64, 2-[6-chloro-1-(4-cyanophenyl)-7-fluoro-1,3,4,9-tetrahydro-2H-pyrido[3,4-b]indol-2-yl]pyrimidine-4-carbonitrile]	67.5
Cc1ccc(C2c3[nH]c4cc(F)c(Cl)cc4c3CCN2c2nc(C)cc(C)n2)cc1 (centres unmarked) [Compound 66, 6-chloro-2-(4,6-dimethylpyrimidin-2-yl)-7-fluoro-1-(4-methylphenyl)-2,3,4,9-tetrahydro-1H-pyrido[3,4-b]indole]	9.7
Fc1cnc(N2CCc3c([nH]c4ccc(Cl)c(F)c34)C2c2ccc(C(F)(F)F)cc2)nc1 (centres unmarked) [Compound 67, 6-chloro-5-fluoro-2-(5-fluoropyrimidin-2-yl)-1-[4-(trifluoromethyl)phenyl]-2,3,4,9-tetrahydro-1H-pyrido[3,4-b]indole]	19.1
N#Cc1ccnc(N2CCc3c([nH]c4cc(F)c(Cl)cc34)C2c2cccc(F)c2F)n1 (centres unmarked) [Compound 68, 2-[6-chloro-1-(2,3-difluorophenyl)-7-fluoro-1,3,4,9-tetrahydro-2H-pyrido[3,4-b]indol-2-yl]pyrimidine-4-carbonitrile]	8.8
